Target: EGFR (human) (UniProt P00533)
Sequence (P00533 whole entry, looked up): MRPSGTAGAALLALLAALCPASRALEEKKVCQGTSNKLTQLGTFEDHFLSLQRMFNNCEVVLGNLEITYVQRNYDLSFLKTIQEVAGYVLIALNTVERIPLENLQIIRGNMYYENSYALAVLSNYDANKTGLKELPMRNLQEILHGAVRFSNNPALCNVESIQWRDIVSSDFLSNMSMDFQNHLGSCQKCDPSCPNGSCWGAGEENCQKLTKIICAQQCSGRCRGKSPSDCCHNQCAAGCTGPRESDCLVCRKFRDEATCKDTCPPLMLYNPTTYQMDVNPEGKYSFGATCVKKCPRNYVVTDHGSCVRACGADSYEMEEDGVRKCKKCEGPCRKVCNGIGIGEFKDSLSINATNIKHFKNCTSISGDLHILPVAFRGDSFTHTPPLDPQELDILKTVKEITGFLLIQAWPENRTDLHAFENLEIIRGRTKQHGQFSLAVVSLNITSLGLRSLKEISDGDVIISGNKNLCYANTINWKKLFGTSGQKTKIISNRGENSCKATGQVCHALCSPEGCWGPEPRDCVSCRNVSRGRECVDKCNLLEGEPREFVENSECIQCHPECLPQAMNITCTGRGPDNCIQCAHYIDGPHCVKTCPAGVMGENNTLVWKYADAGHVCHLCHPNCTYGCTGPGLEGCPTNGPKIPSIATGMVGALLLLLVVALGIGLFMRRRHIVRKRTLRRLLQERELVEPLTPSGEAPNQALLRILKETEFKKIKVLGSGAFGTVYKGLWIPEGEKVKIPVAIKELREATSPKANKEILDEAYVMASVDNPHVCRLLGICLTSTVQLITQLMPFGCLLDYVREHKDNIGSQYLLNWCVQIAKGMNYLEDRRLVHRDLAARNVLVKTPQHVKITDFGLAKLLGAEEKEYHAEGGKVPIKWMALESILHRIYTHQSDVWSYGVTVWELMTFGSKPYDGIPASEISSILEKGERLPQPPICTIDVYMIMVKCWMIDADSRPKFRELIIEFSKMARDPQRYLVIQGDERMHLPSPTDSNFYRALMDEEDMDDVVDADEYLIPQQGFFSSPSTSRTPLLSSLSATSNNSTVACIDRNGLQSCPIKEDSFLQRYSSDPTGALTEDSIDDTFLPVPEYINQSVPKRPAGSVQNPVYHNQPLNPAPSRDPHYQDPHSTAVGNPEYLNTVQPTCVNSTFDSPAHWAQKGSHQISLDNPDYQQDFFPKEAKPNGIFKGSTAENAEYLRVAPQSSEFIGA

Row | SMILES | IC50
1 | COc1cc2ncnc(Oc3ccc(F)c(Cl)c3)c2cc1OC | > 10 µM
2 | COc1ccc(NC(=O)Nc2ccc(Oc3ncnc4cc(OC)c(OC)cc34)cc2)cc1 | > 10 µM
3 | CCOC(=O)Nc1ccc(Nc2ncnc3cc(OC)c(OCCN(CC)CC)cc23)cc1C | > 10 µM
4 | COc1cc2ncnc(Oc3ccc(NC(=O)Nc4ccccc4)cc3)c2cc1OC | > 10 µM
5 | COc1cc2ncnc(Oc3ccc(NC(=O)Nc4ccc(Br)cc4)cc3)c2cc1OC | > 10 µM
6 | COC(=O)Nc1ccc(Oc2ncnc3cc(OC)c(OC)cc23)cc1 | > 10 µM
7 | CCCC(=O)Nc1ccc(Nc2ncnc3cc(OC)c(OC)cc23)cc1C | > 10 µM
8 | COc1cc2ncnc(Oc3ccc(NC(=O)Nc4ccc5ccccc5c4)cc3)c2cc1OC | > 10 µM
9 | COc1cc2ncnc(Oc3ccc(NC(=O)Nc4ccc(F)c(Cl)c4)cc3)c2cc1OC | > 10 µM
10 | CCOC(=O)Nc1ccc(Nc2ncnc3cc(OC)c(OC)cc23)cc1 | > 10 µM
11 | COc1cc2ncnc(Oc3ccc(NC(=O)NC4CCCCC4)cc3)c2cc1OC | > 10 µM
12 | CCOC(=O)Nc1ccc(Nc2ncnc3cc(OCCN(CC)CC)c(OC)cc23)cc1C | > 10 µM
13 | CCCCC(=O)Nc1ccc(Nc2ncnc3cc(OC)c(OC)cc23)cc1C | > 10 µM
14 | COc1cc2ncnc(Oc3ccc(NC(=O)Nc4ccc(F)cc4F)cc3)c2cc1OC | > 10 µM

Now from value to compound:

Row | IC50 | SMILES
15 | > 10 µM | CCCCOc1cc2c(Nc3ccc(NC(=O)OCC)c(C)c3)ncnc2cc1OCCN(CC)CC
16 | > 10 µM | COc1ccc(NC(=O)Nc2cccc(Oc3ncnc4cc(OC)c(OC)cc34)c2)cc1
17 | > 10 µM | CCCCNC(=O)Nc1ccc(Oc2ncnc3cc(OC)c(OC)cc23)cc1
18 | > 10 µM | CCOC(=O)Nc1ccc(Oc2ncnc3cc(OC)c(OC)cc23)cc1
19 | > 10 µM | CCOC(=O)Nc1ccc(Nc2ncnc3cc(OCCN(CC)CC)c(OC)cc23)cc1Cl
20 | > 10 µM | COc1cc2ncnc(Nc3ccc(NC(=O)Nc4ccccc4)cc3)c2cc1OC
21 | > 10 µM | COc1cc2ncnc(Oc3cccc(NC(=O)Nc4ccccc4)c3)c2cc1OC
22 | > 10 µM | COc1cc2ncnc(Nc3ccc(NC(=O)Nc4ccc(F)c(Cl)c4)cc3)c2cc1OC

From the Kinase Knowledgebase extract (Sharma et al. 2016)
